Results: US9409903B2, “Benzyl substituted triazine derivatives and their therapeutical applications” (NantBioScience, Inc., priority 2009, dated 2016)

molecular target: T1, Ret kinase (Homo sapiens, UniProt P07949); experiment: Ret kinase inhibition assay (KinaseProfiler / Kinase Hotspot); type: biochemical; conditions: compound at 1 μM
T1 construct: purchased Millipore (KinaseProfiler service); also Reaction Biology Corp. (Kinase Hotspot)
Experimental: (§1) This example illustrated c-Src kinase, Aurora-A kinase, Flt3 kinase, Ret kinase and TrkA Kinase Assays of selected Compounds from this invention (referred to Daniele Fancelli et al, J. Med. Chem., 2006, 49 (24), pp 7247-7251). The KinaseProfiler™ Service Assay Protocols (Millipore) were used to test the kinase inhibiting activity of novel compounds from this invention. To do this, the buffer composition was as: 20 mM MOPS, 1 mM EDTA, 0.01% Brij-35, 5% Glycerol, 0.1% β-mercaptoethanol, 1 mg/mL BSA. Test compounds were initially dissolved in DMSO at the desired concentration, then serially diluted to the kinase assay buffer. In a final reaction volume of 25 μL, Aurora-A(h) (5-10 mU) is incubated with 8 mM MOPS pH 7.0, 0.2 mM EDTA, 200 μM LRRASLG (Kemptide), 10 mM MgAcetate and [γ^33P-ATP]. The reaction was initiated by the addition of the MgATP mix. After incubation for 40 minute at room temperature, the reaction was stopped by addition of 5 μL of a 3% phosphoric acid solution. 10 μL of the reaction was then spotted onto a P30 filtermat and washed three times for 5 minutes in 50 mM phosphoric acid and once in methanol prior to drying and scintillation counting. Wells containing substrate but no kinase and wells containing a phosphopeptide control were used to set 0% and 100% phosphorylation value, receptively.
(§2) Also Kinase Hotspot^SM kinase assay was used to test the compounds for IC50 or % inhibitions (Reaction Biology Corp.). Inhibitor IC50 values were determined by titration of compound at the optimal kinase concentration (Kinase EC50).

T1 sequence (P07949 29-1114): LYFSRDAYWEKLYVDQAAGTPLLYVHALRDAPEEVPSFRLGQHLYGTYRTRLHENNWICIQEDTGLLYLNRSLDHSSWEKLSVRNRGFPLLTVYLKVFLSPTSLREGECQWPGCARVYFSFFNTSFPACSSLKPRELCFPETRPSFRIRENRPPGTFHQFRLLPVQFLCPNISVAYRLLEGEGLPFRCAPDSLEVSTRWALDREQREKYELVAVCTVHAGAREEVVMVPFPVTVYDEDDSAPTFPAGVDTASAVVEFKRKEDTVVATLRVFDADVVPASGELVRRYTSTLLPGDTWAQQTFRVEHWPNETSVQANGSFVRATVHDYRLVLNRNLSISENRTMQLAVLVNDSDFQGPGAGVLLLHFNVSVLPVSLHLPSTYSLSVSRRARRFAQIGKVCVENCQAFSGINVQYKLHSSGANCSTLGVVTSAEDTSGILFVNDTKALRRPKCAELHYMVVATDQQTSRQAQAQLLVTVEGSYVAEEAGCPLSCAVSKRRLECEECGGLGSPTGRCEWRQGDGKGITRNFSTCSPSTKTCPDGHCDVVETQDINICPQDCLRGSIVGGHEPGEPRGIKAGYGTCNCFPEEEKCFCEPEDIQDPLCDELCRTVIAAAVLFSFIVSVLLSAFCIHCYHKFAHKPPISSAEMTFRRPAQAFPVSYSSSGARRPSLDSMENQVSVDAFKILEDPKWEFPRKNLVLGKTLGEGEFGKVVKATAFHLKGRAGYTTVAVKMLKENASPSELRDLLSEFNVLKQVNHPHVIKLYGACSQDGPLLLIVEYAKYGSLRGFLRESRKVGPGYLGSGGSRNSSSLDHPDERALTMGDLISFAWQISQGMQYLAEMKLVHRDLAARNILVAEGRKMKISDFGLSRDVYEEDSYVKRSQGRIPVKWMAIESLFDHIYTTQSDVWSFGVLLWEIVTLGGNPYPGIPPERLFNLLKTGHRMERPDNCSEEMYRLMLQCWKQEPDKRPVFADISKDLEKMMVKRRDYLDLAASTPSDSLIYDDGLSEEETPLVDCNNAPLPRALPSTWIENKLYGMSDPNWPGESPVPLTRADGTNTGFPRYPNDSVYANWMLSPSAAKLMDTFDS

| inhibition at 1 µM [%] | Structure (SMILES) |
| --- | --- |
| > 90 | CN1CCN(c2nc(Nc3cc(-c4ccco4)[nH]n3)nc(NC(C)(C)c3ccccc3)n2)CC1 [Example 23] |
| < 50 | CC(Nc1nc(Nc2cc(C3CC3)[nH]n2)nc(N2CCN(C)CC2)n1)c1ccc(F)cc1 (stereo not drawn) [Example 20] |
| > 90 | C[C@H](Nc1nc(Nc2cc(-c3ccco3)[nH]n2)nc(N2CCN(C)CC2)n1)c1ccc(F)cc1 [Example 21] |
| < 50 | CN1CCN(c2nc(NCc3ccccc3)nc(Nc3ncc(-c4ccccc4)s3)n2)CC1 [Example 19] |

Second part, the compound before the results:

| Structure (SMILES) | inhibition at 1 µM [%] |
| --- | --- |
| CC(C)c1cnc(Nc2nc(N[C@H](C)c3ccc(F)cc3)nc(N3CCN(C)CC3)n2)s1 [Example 4] | < 50 |
| Cc1cnc(Nc2nc(NCc3ccc(F)cc3)nc(N3CCN(C)CC3)n2)s1 [Example 8] | 50 to 90 |
| Cc1cnc(Nc2nc(NCc3ccccc3)nc(N3CCN(C)CC3)n2)s1 [Example 7] | > 90 |
| CN1CCN(c2nc(NCc3ccccc3)nc(Nc3cc(-c4ccco4)[nH]n3)n2)CC1 [Example 12] | < 50 |
| CN1CCN(c2nc(Nc3cc(-c4ccco4)[nH]n3)nc(N(C)Cc3ccc(F)cc3)n2)CC1 [Example 10] | < 50 |

molecular target: T2, c-Src kinase (Homo sapiens, UniProt P12931); experiment: c-Src kinase inhibition assay (KinaseProfiler / Kinase Hotspot); type: biochemical; conditions: compound at 1 μM; read-out: % Inhibition @1 μM cSrc
T2 construct: purchased Millipore (KinaseProfiler service); also Reaction Biology Corp. (Kinase Hotspot)
Experimental: as §1, §2

T2 sequence (P12931 whole entry): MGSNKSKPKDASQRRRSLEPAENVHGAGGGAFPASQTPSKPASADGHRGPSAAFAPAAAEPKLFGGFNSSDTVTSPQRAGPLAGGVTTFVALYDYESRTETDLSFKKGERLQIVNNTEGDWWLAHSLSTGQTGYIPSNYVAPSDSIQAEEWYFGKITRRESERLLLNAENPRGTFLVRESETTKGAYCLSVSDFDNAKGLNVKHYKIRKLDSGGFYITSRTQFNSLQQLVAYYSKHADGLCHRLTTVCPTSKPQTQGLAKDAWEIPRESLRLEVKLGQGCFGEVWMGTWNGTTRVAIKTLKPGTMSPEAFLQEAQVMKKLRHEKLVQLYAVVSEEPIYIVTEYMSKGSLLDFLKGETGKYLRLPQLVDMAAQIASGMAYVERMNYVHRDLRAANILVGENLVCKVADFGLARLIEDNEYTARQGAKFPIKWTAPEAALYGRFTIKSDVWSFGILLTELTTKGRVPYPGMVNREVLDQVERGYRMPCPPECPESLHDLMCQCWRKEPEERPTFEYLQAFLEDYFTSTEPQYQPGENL

| inhibition at 1 µM [%] | Structure (SMILES) |
| --- | --- |
| < 50 | CN1CCN(c2nc(Nc3cc(-c4ccco4)[nH]n3)nc(NC(C)(C)c3ccccc3)n2)CC1 [Example 23] |
| 50 to 90 | CC(Nc1nc(Nc2cc(C3CC3)[nH]n2)nc(N2CCN(C)CC2)n1)c1ccc(F)cc1 (stereo not drawn) [Example 20] |
| < 50 | C[C@H](Nc1nc(Nc2cc(-c3ccco3)[nH]n2)nc(N2CCN(C)CC2)n1)c1ccc(F)cc1 [Example 21] |
| < 50 | CN1CCN(c2nc(NCc3ccccc3)nc(Nc3ncc(-c4ccccc4)s3)n2)CC1 [Example 19] |

The remaining lines, values behind:

| Structure (SMILES) | inhibition at 1 µM [%] |
| --- | --- |
| CC(C)c1cnc(Nc2nc(N[C@H](C)c3ccc(F)cc3)nc(N3CCN(C)CC3)n2)s1 [Example 4] | 50 to 90 |
| Cc1cnc(Nc2nc(NCc3ccc(F)cc3)nc(N3CCN(C)CC3)n2)s1 [Example 8] | 50 to 90 |
| Cc1cnc(Nc2nc(NCc3ccccc3)nc(N3CCN(C)CC3)n2)s1 [Example 7] | 50 to 90 |
| CN1CCN(c2nc(NCc3ccccc3)nc(Nc3cc(-c4ccco4)[nH]n3)n2)CC1 [Example 12] | 50 to 90 |
| CN1CCN(c2nc(Nc3cc(-c4ccco4)[nH]n3)nc(N(C)Cc3ccc(F)cc3)n2)CC1 [Example 10] | 50 to 90 |

molecular target: T3, Aurora-A(h) (Homo sapiens, UniProt O14965); experiment: Aurora-A kinase inhibition assay (KinaseProfiler / Kinase Hotspot); type: biochemical; conditions: compound at 1 μM
T3 construct: purchased Millipore (KinaseProfiler service); also Reaction Biology Corp. (Kinase Hotspot)
T3 sequence (O14965 1-403): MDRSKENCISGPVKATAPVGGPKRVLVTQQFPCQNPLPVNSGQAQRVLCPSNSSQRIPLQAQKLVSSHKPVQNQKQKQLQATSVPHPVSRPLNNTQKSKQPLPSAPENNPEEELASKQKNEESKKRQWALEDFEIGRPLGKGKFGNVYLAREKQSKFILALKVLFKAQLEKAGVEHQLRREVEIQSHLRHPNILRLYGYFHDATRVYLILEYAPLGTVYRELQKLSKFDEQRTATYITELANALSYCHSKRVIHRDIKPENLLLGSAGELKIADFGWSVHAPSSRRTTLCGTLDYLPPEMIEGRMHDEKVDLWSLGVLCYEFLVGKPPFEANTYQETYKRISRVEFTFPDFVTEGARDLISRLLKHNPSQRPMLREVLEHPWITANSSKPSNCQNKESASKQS
Experimental: as §1, §2

| inhibition at 1 µM [%] | Structure (SMILES) |
| --- | --- |
| < 50 | CN1CCN(c2nc(Nc3cc(-c4ccco4)[nH]n3)nc(NC(C)(C)c3ccccc3)n2)CC1 [Example 23] |
| 50 to 90 | CC(Nc1nc(Nc2cc(C3CC3)[nH]n2)nc(N2CCN(C)CC2)n1)c1ccc(F)cc1 (stereo not drawn) [Example 20] |
| < 50 | C[C@H](Nc1nc(Nc2cc(-c3ccco3)[nH]n2)nc(N2CCN(C)CC2)n1)c1ccc(F)cc1 [Example 21] |
| < 50 | CN1CCN(c2nc(NCc3ccccc3)nc(Nc3ncc(-c4ccccc4)s3)n2)CC1 [Example 19] |

Continued, compound first:

| Structure (SMILES) | inhibition at 1 µM [%] |
| --- | --- |
| CC(C)c1cnc(Nc2nc(N[C@H](C)c3ccc(F)cc3)nc(N3CCN(C)CC3)n2)s1 [Example 4] | < 50 |
| Cc1cnc(Nc2nc(NCc3ccc(F)cc3)nc(N3CCN(C)CC3)n2)s1 [Example 8] | 50 to 90 |
| Cc1cnc(Nc2nc(NCc3ccccc3)nc(N3CCN(C)CC3)n2)s1 [Example 7] | 50 to 90 |
| CN1CCN(c2nc(NCc3ccccc3)nc(Nc3cc(-c4ccco4)[nH]n3)n2)CC1 [Example 12] | < 50 |
| CN1CCN(c2nc(Nc3cc(-c4ccco4)[nH]n3)nc(N(C)Cc3ccc(F)cc3)n2)CC1 [Example 10] | 50 to 90 |

molecular target: T4, Flt3 kinase (Homo sapiens, UniProt P36888); experiment: Flt3 kinase inhibition assay (KinaseProfiler / Kinase Hotspot); type: biochemical; conditions: compound at 1 μM
T4 construct: purchased Millipore (KinaseProfiler service); also Reaction Biology Corp. (Kinase Hotspot)
T4 sequence (P36888 27-993): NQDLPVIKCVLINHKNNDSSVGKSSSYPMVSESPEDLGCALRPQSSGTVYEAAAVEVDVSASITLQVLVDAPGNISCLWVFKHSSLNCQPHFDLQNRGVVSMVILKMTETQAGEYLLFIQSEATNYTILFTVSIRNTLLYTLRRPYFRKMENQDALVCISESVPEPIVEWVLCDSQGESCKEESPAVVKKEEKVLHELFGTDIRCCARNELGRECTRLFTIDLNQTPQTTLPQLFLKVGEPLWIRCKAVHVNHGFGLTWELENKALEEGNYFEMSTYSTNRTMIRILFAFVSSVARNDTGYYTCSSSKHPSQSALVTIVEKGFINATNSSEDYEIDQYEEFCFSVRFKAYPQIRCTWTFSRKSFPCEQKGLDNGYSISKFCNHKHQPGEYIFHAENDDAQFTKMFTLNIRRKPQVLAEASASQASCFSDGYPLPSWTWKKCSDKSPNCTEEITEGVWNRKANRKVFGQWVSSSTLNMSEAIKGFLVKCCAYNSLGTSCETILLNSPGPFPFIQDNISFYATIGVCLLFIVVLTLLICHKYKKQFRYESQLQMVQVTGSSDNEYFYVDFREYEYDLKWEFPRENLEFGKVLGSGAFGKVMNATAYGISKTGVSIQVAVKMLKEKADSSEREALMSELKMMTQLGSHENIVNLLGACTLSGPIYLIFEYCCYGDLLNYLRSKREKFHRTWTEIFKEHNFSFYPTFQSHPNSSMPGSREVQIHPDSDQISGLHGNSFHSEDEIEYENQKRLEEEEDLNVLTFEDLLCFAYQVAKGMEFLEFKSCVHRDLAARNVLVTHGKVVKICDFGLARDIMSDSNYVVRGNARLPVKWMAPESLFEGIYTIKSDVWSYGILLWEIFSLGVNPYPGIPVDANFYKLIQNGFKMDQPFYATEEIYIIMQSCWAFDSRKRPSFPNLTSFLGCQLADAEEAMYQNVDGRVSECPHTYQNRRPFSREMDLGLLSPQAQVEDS
Experimental: as §1, §2

| inhibition at 1 µM [%] | Structure (SMILES) |
| --- | --- |
| > 90 | CN1CCN(c2nc(Nc3cc(-c4ccco4)[nH]n3)nc(NC(C)(C)c3ccccc3)n2)CC1 [Example 23] |
| 50 to 90 | CC(Nc1nc(Nc2cc(C3CC3)[nH]n2)nc(N2CCN(C)CC2)n1)c1ccc(F)cc1 (stereo not drawn) [Example 20] |
| > 90 | C[C@H](Nc1nc(Nc2cc(-c3ccco3)[nH]n2)nc(N2CCN(C)CC2)n1)c1ccc(F)cc1 [Example 21] |
| < 50 | CN1CCN(c2nc(NCc3ccccc3)nc(Nc3ncc(-c4ccccc4)s3)n2)CC1 [Example 19] |

Second part, the compound before the results:

| Structure (SMILES) | inhibition at 1 µM [%] |
| --- | --- |
| CC(C)c1cnc(Nc2nc(N[C@H](C)c3ccc(F)cc3)nc(N3CCN(C)CC3)n2)s1 [Example 4] | > 90 |
| Cc1cnc(Nc2nc(NCc3ccc(F)cc3)nc(N3CCN(C)CC3)n2)s1 [Example 8] | > 90 |
| Cc1cnc(Nc2nc(NCc3ccccc3)nc(N3CCN(C)CC3)n2)s1 [Example 7] | > 90 |
| CN1CCN(c2nc(NCc3ccccc3)nc(Nc3cc(-c4ccco4)[nH]n3)n2)CC1 [Example 12] | > 90 |
| CN1CCN(c2nc(Nc3cc(-c4ccco4)[nH]n3)nc(N(C)Cc3ccc(F)cc3)n2)CC1 [Example 10] | > 90 |

molecular target: T5, TrkA Kinase (Homo sapiens, UniProt P04629); experiment: TrkA kinase inhibition assay (KinaseProfiler / Kinase Hotspot); type: biochemical; conditions: compound at 1 μM
T5 construct: purchased Millipore (KinaseProfiler service); also Reaction Biology Corp. (Kinase Hotspot)
Experimental: as §1, §2

T5 sequence (P04629 33-796): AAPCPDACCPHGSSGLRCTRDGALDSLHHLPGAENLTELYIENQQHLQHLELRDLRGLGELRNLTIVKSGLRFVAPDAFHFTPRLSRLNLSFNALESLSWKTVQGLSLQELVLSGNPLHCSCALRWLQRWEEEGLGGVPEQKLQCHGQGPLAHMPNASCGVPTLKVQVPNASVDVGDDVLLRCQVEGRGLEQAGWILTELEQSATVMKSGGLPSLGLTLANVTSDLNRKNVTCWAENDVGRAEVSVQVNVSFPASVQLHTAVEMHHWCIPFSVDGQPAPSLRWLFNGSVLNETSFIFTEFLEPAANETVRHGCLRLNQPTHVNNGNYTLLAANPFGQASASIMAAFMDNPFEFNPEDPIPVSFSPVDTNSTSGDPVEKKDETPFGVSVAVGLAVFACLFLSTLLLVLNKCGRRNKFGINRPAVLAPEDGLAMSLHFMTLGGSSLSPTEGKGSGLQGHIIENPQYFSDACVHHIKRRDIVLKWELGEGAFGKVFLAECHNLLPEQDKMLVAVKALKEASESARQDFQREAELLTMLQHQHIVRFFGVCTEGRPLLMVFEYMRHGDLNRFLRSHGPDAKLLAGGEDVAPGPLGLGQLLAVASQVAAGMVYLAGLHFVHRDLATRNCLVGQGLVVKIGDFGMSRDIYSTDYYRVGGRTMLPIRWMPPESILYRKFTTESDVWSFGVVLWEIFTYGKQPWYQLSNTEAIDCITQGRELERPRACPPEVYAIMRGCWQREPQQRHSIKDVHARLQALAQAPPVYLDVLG

| inhibition at 1 µM [%] | Structure (SMILES) |
| --- | --- |
| > 90 | CN1CCN(c2nc(Nc3cc(-c4ccco4)[nH]n3)nc(NC(C)(C)c3ccccc3)n2)CC1 [Example 23] |
| 50 to 90 | CC(Nc1nc(Nc2cc(C3CC3)[nH]n2)nc(N2CCN(C)CC2)n1)c1ccc(F)cc1 (stereo not drawn) [Example 20] |
| > 90 | C[C@H](Nc1nc(Nc2cc(-c3ccco3)[nH]n2)nc(N2CCN(C)CC2)n1)c1ccc(F)cc1 [Example 21] |
| < 50 | CN1CCN(c2nc(NCc3ccccc3)nc(Nc3ncc(-c4ccccc4)s3)n2)CC1 [Example 19] |

The next lines start with the compound.

| Structure (SMILES) | inhibition at 1 µM [%] |
| --- | --- |
| CC(C)c1cnc(Nc2nc(N[C@H](C)c3ccc(F)cc3)nc(N3CCN(C)CC3)n2)s1 [Example 4] | 50 to 90 |
| Cc1cnc(Nc2nc(NCc3ccc(F)cc3)nc(N3CCN(C)CC3)n2)s1 [Example 8] | > 90 |
| Cc1cnc(Nc2nc(NCc3ccccc3)nc(N3CCN(C)CC3)n2)s1 [Example 7] | > 90 |
| CN1CCN(c2nc(NCc3ccccc3)nc(Nc3cc(-c4ccco4)[nH]n3)n2)CC1 [Example 12] | > 90 |
| CN1CCN(c2nc(Nc3cc(-c4ccco4)[nH]n3)nc(N(C)Cc3ccc(F)cc3)n2)CC1 [Example 10] | > 90 |
